Read-outs that look alike come from different tables or passages of the source.

For orientation: Ki means a dissociation constant, usually derived from enzyme kinetics or from competition with a known ligand.

Assay [1] has as its target GluR3 (Rattus norvegicus, UniProt P19492). Format: cell-based. As to the method: Thus, oocytes were injected with in vitro synthesized RNA transcripts derived from individual cDNA clones.
(§1) The data in FIG. 3B represent the responses of oocytes to the indicated agonists measured 3 days after injection with GluR1 (2 ng) or GluR3 (2 ng) RNA or adult rat brain hippocampus poly(A)^+ RNA (~50 ng). All values are normalized to the response obtained with […] and are presented as the mean ± S.E.M. with n≥3 for all measurements.

The target of assay [2] is GluR5-1 (Rattus norvegicus, UniProt P22756). Format: cell-based. The source says:
(§2) In vitro synthesized GluR5-1 and GluR5-2 cRNAs were individually expressed in Xenopus oocytes.

Assay [3] addresses GluR5-2 (Rattus norvegicus, UniProt P22756). Format: cell-based.
From the text: as §2

The target of assay [4] is T1, GluR1 (Rattus norvegicus, UniProt P19490).
T1 construct: expressed in transfected cells; host or cells: Xenopus oocytes injected with GluR1 in vitro sense RNA
T1 sequence (P19490 19-907 S67T/A248R/S789T): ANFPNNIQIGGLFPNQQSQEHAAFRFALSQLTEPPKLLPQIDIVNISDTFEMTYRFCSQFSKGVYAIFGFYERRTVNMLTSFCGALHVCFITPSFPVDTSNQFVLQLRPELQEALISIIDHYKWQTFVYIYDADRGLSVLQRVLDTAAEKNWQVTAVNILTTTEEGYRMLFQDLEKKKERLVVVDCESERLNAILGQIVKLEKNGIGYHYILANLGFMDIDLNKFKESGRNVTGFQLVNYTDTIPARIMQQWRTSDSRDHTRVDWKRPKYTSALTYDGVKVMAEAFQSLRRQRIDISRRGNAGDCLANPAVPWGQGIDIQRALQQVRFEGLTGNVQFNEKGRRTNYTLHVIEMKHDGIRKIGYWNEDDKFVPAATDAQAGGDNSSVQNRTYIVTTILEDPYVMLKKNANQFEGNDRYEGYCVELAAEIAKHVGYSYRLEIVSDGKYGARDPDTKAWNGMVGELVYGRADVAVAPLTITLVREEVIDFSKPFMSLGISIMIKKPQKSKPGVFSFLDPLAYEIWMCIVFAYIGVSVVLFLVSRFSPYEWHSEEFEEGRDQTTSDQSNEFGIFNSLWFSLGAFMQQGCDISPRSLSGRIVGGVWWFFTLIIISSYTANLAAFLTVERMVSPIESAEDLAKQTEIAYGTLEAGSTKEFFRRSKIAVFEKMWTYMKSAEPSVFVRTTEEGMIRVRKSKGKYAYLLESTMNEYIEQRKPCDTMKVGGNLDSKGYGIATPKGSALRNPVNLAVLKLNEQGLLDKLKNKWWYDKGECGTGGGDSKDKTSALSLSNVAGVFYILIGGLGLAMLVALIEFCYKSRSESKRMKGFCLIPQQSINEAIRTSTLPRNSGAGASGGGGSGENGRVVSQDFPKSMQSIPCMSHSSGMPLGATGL
The assay is described as follows: Voltage-clamp recording in Xenopus oocytes injected with GluR1 in vitro RNA. Format: cell-based. The note with it: for agonist properties (in words) / inhibition of kainate-evoked depolarizations (in words): each at 1 mM.
From the text: Either a λZAP cDNA preparation, or a plasmid containing the cDNA to be tested, are cut downstream from the cDNA insert with a restriction enzyme. The post-restriction digest is digested with Proteinase K and then extracted with two phenol: chloroform (1:1) extractions. The resulting DNA fragments are then ethanol precipitated. The precipitated fragments are mixed with either T3 RNA polymerase (to make sense strand), or T7 RNA polymerase (to make anti-sense strand), plus rATP, rCTP, rGTP, rUTP, and RNase inhibitor. Simultaneously, the RNA transcripts are capped with a sodium diguanosine triphosphate [G(5')ppp(5')G] cap. The water used for the above procedures is treated with diethylpyrocarbonate to inactivate RNases.
The in vitro synthesized mRNA transcripts are injected into Xenopus oocytes. 50 nl of an RNA solution, 0.2-0.6 mg/ml, is injected into the stage V oocytes. The injected oocytes are incubated at 16° C. in Barth's medium for 2-7 days before they are analyzed for the presence of functional receptors.
Voltage recordings are made by penetrating the oocyte with a micro-electrode filled with 3M KCl and connected to the bridge circuit of an appropriate voltage clamp unit, e.g., the Dagan 8500 voltage clamp unit. Voltage recordings are preferably obtained with two electrodes, a voltage electrode filled with 3M KCl and a current electrode filled with 0.25M CsCl, 0.25M CsF and 50 mM EGTA (ethylene glycol tetraacetic acid).
Oocytes employed herein are obtained from ovarian tissue from anesthetized adult female Xenopus. The ovarian tissue is treated with collagenase, 2 mg/ml, for two hours and then the ovarian epithelium and follicular cells are dissected away.
The plasmid pGluR1 was subsequently rescued from bacteriophage λZAPII-GluR1.
3 days prior to the recording. The oocytes were voltageclamped at -70 mV,
applied by rapid superfusion, with 5 minute intervals between drugs. Peak
currents were recorded; each number represents the average of 3 recording
from 3 different oocytes, ± SEM.
as §1

Assay [5] concerns kainate receptor. Format: cell-based, rat. As to the method:
A directional cDNA library (λZAPII RTB1; complexity: 8×10^5 elements), consisting of 18 independent sublibraries of 44,000 clones each, was constructed from this poly(A)^+ RNA using the bacteriophage expression vector λZAPII. A pool of in vitro transcripts, comprised of transcripts made separately from all 18 amplified sublibraries, was injected into oocytes. […] Subsequently, pools of 44,000 clones (=the single sublibraries), 4,000, 400 and 40 clones were tested.

In assay [6] the target is T2, homomeric GluR6 receptor (Rattus norvegicus, UniProt P42260, I567V/Q621R/Y571C).
T2 construct: A 4559 base pair cDNA encoding a protein of 884 amino acid residues was engineered from RC11 and RC27; expressed in transfected cells; host or cells: Xenopus oocytes injected with in vitro transcribed GluR6 RNA
T2 sequence (P42260 with tags, fused parts or gaps I567V/Y571C/Q621R): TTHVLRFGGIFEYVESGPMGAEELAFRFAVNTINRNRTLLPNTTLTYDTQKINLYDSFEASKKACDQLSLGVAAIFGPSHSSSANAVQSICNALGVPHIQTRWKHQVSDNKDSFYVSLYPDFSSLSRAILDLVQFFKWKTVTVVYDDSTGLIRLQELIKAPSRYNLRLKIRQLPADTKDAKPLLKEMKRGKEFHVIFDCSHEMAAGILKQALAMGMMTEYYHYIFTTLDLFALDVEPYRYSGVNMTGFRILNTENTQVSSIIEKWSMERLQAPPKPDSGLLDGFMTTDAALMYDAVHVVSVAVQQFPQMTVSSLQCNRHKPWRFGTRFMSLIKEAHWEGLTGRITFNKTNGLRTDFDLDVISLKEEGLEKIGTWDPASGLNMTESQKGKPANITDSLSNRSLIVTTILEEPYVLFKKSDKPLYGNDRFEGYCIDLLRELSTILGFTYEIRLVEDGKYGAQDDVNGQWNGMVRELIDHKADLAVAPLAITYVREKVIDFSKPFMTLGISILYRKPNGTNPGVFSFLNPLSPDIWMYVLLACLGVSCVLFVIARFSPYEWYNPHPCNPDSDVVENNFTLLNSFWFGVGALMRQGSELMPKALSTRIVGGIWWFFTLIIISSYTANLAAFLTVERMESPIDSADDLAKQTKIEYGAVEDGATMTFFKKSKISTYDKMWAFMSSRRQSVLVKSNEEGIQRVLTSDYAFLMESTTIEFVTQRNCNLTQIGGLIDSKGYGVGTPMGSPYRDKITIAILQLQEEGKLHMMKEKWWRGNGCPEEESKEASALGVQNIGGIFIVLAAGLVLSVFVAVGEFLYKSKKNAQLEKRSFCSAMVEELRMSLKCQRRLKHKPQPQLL
The assay is described as follows: Homomeric GluR6 ion channel in Xenopus oocytes injected with in vitro transcribed RNA. Format: cell-based. Particulars: for current at -70 mV: 10 μM kainate; for responsiveness of homomeric ion channels: summary statement.

The subject of assay [7] is glutamate receptor subtypes. Format: cell-based, rat. The note with it: 2-10 days after injection.
In assay [8] the target is kainate receptors derived from forebrain mRNA. The note with it: read-out: Ki for block of kainate responses; literature value (Verdoorn et al.); cited from earlier work.
The mark [9] stands for this setting: QUIS 10 μM, AMPA 50 μM, GLU 100 μM, NMDA 30 μM plus 10 μM glycine, APB 50 μM, -70 mV, 2 ng RNA, 3 days.
The mark [10] stands for this setting: oocytes held at -100 mV, before Con A, AMPA 100 μM.

Chain of GluR5-1 (P22756 with tags, fused parts or gaps K282L/C354W/A355R/A477G/DEL870-898): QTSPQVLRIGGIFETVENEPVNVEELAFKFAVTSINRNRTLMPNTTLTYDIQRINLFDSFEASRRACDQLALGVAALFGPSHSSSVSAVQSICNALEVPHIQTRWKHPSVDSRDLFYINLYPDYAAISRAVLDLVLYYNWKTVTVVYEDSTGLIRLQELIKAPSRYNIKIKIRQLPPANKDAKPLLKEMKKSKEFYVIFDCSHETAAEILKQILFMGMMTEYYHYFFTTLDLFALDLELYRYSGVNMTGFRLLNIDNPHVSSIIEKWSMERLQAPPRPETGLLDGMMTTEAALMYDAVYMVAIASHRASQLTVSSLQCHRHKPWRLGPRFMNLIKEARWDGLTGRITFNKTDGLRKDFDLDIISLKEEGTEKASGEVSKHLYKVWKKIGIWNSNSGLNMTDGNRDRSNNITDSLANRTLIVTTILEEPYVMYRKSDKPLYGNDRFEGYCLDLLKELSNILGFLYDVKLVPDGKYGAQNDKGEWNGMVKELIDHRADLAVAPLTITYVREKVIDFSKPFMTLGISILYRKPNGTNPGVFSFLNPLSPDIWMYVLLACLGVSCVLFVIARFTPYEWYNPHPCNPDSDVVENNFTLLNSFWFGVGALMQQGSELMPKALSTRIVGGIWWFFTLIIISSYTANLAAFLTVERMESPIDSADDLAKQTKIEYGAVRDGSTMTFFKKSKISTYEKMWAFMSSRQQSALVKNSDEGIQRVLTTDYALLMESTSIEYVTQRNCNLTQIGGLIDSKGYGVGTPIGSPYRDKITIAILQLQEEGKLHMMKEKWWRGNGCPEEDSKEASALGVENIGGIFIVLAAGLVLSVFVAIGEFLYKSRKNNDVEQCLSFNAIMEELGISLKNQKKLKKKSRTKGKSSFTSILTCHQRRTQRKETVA
Chain of GluR5-2 (P22756 31-949): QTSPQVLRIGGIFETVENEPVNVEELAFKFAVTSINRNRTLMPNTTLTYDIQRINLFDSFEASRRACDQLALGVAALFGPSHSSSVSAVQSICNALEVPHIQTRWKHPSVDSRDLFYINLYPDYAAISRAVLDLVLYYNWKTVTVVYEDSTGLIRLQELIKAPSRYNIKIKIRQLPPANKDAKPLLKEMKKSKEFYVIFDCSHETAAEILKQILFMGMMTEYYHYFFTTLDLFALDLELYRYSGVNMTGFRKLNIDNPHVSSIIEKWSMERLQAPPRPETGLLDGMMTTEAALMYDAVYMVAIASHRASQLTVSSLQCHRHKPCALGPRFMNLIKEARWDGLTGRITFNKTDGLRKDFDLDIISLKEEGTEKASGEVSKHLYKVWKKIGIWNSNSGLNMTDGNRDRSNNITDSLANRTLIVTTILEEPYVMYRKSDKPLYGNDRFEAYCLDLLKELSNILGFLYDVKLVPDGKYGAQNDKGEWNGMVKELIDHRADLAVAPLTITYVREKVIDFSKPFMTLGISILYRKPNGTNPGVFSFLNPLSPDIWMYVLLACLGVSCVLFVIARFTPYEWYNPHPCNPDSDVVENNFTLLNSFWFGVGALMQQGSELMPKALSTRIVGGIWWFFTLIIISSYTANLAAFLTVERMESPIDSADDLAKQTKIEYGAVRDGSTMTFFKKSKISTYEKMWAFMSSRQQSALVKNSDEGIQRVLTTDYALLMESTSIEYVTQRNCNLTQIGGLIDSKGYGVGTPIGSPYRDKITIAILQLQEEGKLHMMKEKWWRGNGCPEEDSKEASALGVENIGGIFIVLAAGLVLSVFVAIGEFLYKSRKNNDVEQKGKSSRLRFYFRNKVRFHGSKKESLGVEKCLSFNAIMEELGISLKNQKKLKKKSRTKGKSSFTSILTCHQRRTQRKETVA
Chain of GluR3 (P19492 23-888): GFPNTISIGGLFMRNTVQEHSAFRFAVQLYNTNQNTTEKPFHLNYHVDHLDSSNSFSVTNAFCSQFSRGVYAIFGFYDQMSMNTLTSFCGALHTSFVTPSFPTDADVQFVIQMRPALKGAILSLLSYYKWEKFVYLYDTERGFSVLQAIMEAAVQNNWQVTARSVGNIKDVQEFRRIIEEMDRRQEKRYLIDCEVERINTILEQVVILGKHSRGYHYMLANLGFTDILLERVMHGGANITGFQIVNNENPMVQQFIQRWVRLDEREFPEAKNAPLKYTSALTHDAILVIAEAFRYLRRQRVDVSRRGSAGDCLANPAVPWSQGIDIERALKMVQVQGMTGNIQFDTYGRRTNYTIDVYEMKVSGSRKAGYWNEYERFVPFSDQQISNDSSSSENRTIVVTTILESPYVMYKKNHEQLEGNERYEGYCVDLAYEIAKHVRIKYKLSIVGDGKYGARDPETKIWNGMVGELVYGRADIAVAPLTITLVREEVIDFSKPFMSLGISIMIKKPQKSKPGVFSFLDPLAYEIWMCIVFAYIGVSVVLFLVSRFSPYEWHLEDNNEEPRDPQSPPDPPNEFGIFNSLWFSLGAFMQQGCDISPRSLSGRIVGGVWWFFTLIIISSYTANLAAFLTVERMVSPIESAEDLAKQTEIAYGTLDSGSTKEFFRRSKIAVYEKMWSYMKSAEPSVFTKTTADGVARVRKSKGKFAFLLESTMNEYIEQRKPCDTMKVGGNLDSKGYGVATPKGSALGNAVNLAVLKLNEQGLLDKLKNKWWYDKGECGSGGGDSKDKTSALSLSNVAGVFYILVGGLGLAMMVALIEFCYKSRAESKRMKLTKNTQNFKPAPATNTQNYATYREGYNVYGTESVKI

Take `CN[C@H](CC(=O)O)C(=O)O` [NMDA, N-methyl-D-aspartic acid]: in assay [1], the response to agonist entry is listed as “No detectable responses”. The membrane depolarizations elicited result in assay [2] is recorded as “did not elicit membrane depolarizations”. Also, in assay [3], the membrane depolarizations elicited entry is on record as “did not elicit membrane depolarizations”. Moreover, in assay [4], the response to agonist result is given as “No detectable responses”, the “responses evoked by other glutamate receptor agonists” value is “evoked no responses”, the “agonist properties (in words)” value is given as “did not show any agonist properties” and the “inhibition of kainate-evoked depolarizations (in words)” value (from here on “inhibition”) is given as “slightly inhibited the KA responses”. The responses detected entry in assay [5] is “No responses”. Besides, the “response of Con A treated oocytes” value in assay [6] is “did not respond”. In assay [7], the “response to selective agonists” value is listed as “elicited smooth responses with fast onsets”.
Take `NC(CCP(=O)(O)O)C(=O)O` (centres unmarked) [APB, 2-amino-4-phosphonobutyric acid]: the response to agonist entry in assay [1] (setting [9]) and in assay [4] (setting [9]) was “No detectable responses” in each case. Besides, the membrane depolarizations elicited result was “did not elicit membrane depolarizations” in assay [2] (AMPA 50 μM, quisqualate 10 μM, APB 100 μM, NMDA 100 μM with 10 μM glycine) and “did not elicit membrane depolarizations” in assay [3] (KA 100 MM, AMPA 50 μM, quisqualate 10 μM, APB 100 μM, NMDA 100 μM with 10 μM glycine). For the same compound, in assay [7], the “response to selective agonists” value is on record as “gave no response”.
In the case of `NCC(=O)O` [glycine], in assay [4], the “potentiation of the KA response” value is on record as “did not potentiate the KA response” and the “responses evoked by unrelated neurotransmitter receptor agonists” value is reported as “failed to evoke responses”.
Turning to `N[C@H](CCC(=O)NCC(=O)O)C(=O)O` [γ-DGG, D-glutamylglycine], the “inhibition” value in assay [4] was “inhibited kainate responses”. In addition, in assay [4] (xenopus oocytes, 1000 µM), the “Compound Alone (%): % of the response evoked by 30 μM kainate immediately before drug application” value (shortened to “Compound Alone (%): %”) is -0.1 ± 0.5% and the “Compound Plus Kainate (%): % of the response seen with 30 μM kainate alone” value (“Compound Plus Kainate (%): %” for short) is given as 30.8 ± 1.1%.
For `O=C(O)c1cc(=O)c2ccccc2[nH]1` [Kynurenic acid], in that order: “most potent inhibitor”, 3.4 ± 0.2% and 9.6 ± 1.3%.
In the case of `C=C(C)[C@H]1CN[C@H](C(=O)O)[C@H]1CC(=O)O` [kainate, kainic acid], the desensitization of responses entry in assay [4] (prolonged (up to 10 minutes) superfusion, 100 μM agonist) is “did not desensitize”. Further, the “current at -70 mV” value in assay [6] (Con A treated, modified Ringer solution (sodium methanesulfonate)) turned out to be 330 nA; in assay [6] (Ringer solution, after Con A treatment), 2.3 μa; in assay [6] (Ringer solution, before Con A treatment), 30 nA. Further, in assay [6] (100 μM aspartate, 100 μM NMDA with 3 μM glycine, 10-1000 μM AMPA), the “response of Con A treated oocytes” value is “responded”. The “time to full recovery from desensitization” value in assay [6] (100 μM kainate for 30 seconds) is recorded as “approximately 15 minutes”. In assay [6] (setting [10]), the inward current evoked result was “evoked inward currents that desensitized”. The “responsiveness of homomeric ion channels” value in assay [6] is “responsive to KA”.
`CCOC(=O)CC[C@H](N)C(=O)OCC` [GDEE, glutamate diethylester]: in assay [4], the “agonist properties (in words)” value is “displayed weak agonist properties” and the “inhibition” value is reported as “did not block the response significantly”. Moreover, in assay [4] (xenopus oocytes, 1000 µM), the “Compound Alone (%): %” value worked out at 24.8 ± 5.7% and the “Compound Plus Kainate (%): %” value is listed as 97.8 ± 6.6%.
Take `N#Cc1cc2[nH]c(=O)c(=O)[nH]c2cc1[N+](=O)[O-]` [CNQX, 6-nitro-7-cyano-quinoxaline-2,3-dione]: the Ki in assay [8] is 295 nM. Besides, the “block of agonist-evoked responses” value in assay [6] was “blocked both quisqualate and kainate-evoked responses”.
On to `O=C(O)[C@H]1CCCN[C@H]1C(=O)O` (relative stereo) [PDA, 2,3cis-piperidine dicarboxylic acid], for which the “inhibition” value in assay [4] was “blocked the GluR1 response”. For the same compound, in assay [4] (xenopus oocytes, 1000 µM), the “Compound Alone (%): %” value stood at 2.5 ± 0.7% and the “Compound Plus Kainate (%): %” value is 31.3 ± 2.0%.
Consider `C/C(=C/C=C/[C@@H](C)C(=O)O)[C@H]1CN[C@H](C(=O)O)[C@H]1CC(=O)O` [domoate, domoic acid], for which, in assay [5] (10 μM domoate vs 100 μM kainate), the “response compared with kainate” value was “response similar to the one elicited by 100 μM kainate”.
For the compound `CN1CCCC1c1cccnc1` (centres unmarked) [nicotine], the “responses evoked by unrelated neurotransmitter receptor agonists” value in assay [4] was “failed to evoke responses”.
As to `O=C(O)C1CN(CCCP(=O)(O)O)CCN1` (centres unmarked) [CPP], in assay [4], the “agonist properties (in words)” value is reported as “did not show any agonist properties” and the “inhibition” value is “slightly inhibited the KA responses”. In addition, in assay [4] (xenopus oocytes, 1000 µM), the “Compound Alone (%): %” value was 9.1 ± 0.7% and the “Compound Plus Kainate (%): %” value is recorded as 78.8 ± 0.9%.
Take `N[C@@H](Cn1oc(=O)[nH]c1=O)C(=O)O` [quisqualate, quisqualic acid]: the membrane depolarizations elicited result in assay [2] is reported as “did not elicit membrane depolarizations”. In assay [3], the membrane depolarizations elicited entry was “did not elicit membrane depolarizations”. Besides, in assay [6], the “effect on kainate-evoked current” value is listed as “attenuated a subsequent kainate evoked current” and the inward current evoked result was “activated only small inward currents”.
On to `NC(CCCP(=O)(O)O)C(=O)O` (centres unmarked) [APV, 2amino-5-phospho-novaleric acid], for which, in assay [4], the “agonist properties (in words)” value is “did not show any agonist properties” and the “inhibition” value is listed as “slightly inhibited the KA responses”. Besides, in assay [4] (test compounds 1 mM plus 30 μM kainate, -70 mV, peak currents, average of 3 oocytes ± SEM), the “Compound Plus Kainate (%): %” value stood at 73.7 ± 3.2%. Also, the “Compound Alone (%): %” value in assay [4] (test compounds 1 mM, kainate 30 μM, -70 mV, peak currents, average of 3 oocytes ± SEM) is recorded as 3.1 ± 1.4%.
With `NCCc1c[nH]c2ccc(O)cc12` [serotonin], the “responses evoked by unrelated neurotransmitter receptor agonists” value in assay [4] (concentrations as high as 1 mM) is “failed to evoke responses”.
With `CS(=O)(=O)O` [methanesulfonate, sodium methanesulfonate], in assay [6] (95% of Cl- substituted by methanesulfonate), the “reduction of kainate-evoked current” value is on record as 8 fold.
On to `NCCCC(=O)O` [γ-aminobutyric acid], for which the “responses evoked by unrelated neurotransmitter receptor agonists” value in assay [4] (concentrations as high as 1 mM) is listed as “failed to evoke responses”.
Turning to `Cc1onc(O)c1CC(N)C(=O)O` (stereo not drawn) [AMPA, α-amino-3-hydroxy-5-methyl-isoxazole-4-propionic acid], in assay [6], the “effect on kainate-evoked current” value was “nor did it antagonize a kainate-evoked current”, the “response of Con A treated oocytes” value is given as “did not respond” and the “responsiveness of homomeric ion channels” value is on record as “but not to AMPA”. Moreover, the “effect of coapplication on kainate-evoked (1 μM) responses” value in assay [6] (AMPA 100 μM, Con A treated oocytes) is “had no effect”. The inward current evoked result in assay [6] (setting [10]) is reported as “did not evoke any detectable current”.

Source of the values: patent US5739291A, “Glutamate receptor antibodies” (The Salk Institute For Biological Studies, priority 1995, dated 1998).
